Measured values taken from US11345698B2, “Substituted imidazo[1,2-a]pyridines, substituted imidazo[1,2-a]pyrazines, related compounds, and their use in the treatment of medical disorders” (Bial—R&D Investments, S.A., priority 2016, dated 2022).
≈ marks a conversion by molar mass, not a printed value.

What was measured:
[1] = molecular target: T1, glucocerebrosidase (Gcase) (Homo sapiens, UniProt P04062); test: Glucocerebrosidase (Gcase) activation assay, 4-methylumbelliferyl-beta-D-glucopyranoside substrate, with saposin C; type: biochemical; details: 10 nM GCase, 100 nM saposin C, pH 4.7; for activation at 0.1 µM: read-out: Percent Gcase Activation, 0.1 μM Test Compound; for activation at 1 µM: read-out: Percent Gcase Activation, 1 μM Test Compound
T1 sequence (P04062 40-536): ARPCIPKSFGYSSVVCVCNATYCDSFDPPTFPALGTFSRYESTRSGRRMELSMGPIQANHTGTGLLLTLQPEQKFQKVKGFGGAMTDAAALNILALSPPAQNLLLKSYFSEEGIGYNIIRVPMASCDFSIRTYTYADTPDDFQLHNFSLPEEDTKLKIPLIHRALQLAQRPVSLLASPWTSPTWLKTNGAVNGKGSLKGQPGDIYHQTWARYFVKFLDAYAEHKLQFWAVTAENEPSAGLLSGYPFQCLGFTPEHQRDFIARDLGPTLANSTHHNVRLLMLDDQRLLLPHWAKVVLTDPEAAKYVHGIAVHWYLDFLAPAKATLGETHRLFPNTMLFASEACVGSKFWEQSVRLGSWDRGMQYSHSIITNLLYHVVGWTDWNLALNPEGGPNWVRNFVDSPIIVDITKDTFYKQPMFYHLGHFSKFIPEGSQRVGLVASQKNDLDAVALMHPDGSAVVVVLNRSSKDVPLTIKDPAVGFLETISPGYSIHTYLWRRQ
Method: A 484 μL aliquot of a 1.0 mg/mL solution of phosphatidylserine (PS) (Sigma P7769) in chloroform was evaporated under a stream of nitrogen for 1 hour. The lipid film was dissolved over 4 minutes of vigorous vortexing in 40 mL of 176 mM K2HPO4/50 mM citric acid (pH 4.7) containing 7.5 μL of triton X-100, resulting in a mixed micellar preparation with a composition of 0.32 mM triton and 0.37 mol % PS. 4-Methylumbelliferyl-beta-D-glucopyranoside (ACROS-337025000) was dissolved in the micellar solution to a final concentration of 2 mM for use as the reaction substrate.
Test compounds were diluted to the desired concentrations with dimethylsulfoxide (DMSO) from 10 mM stocks, and 0.41 μL of the DMSO compound mixture was added to 100 μL of micellar solution containing 10 nM GCase and 100 nM saposin C (Enzo ALX-201-262-C050). Pre-incubation was allowed to occur for 30 minutes at room temperature, after which the reaction was initiated by combining 25 μL of substrate solution with 25 μL of compound/GCase/saposin mixture. The reaction proceeded for 15 minutes at room temperature and was stopped by adding 150 μL of 1M glycine, pH 12.5. The endpoint of the reaction was monitored by measuring fluorescence intensity (excitation: 365 nm; emission: 440 nm) on a SpectraMax i3 instrument (Molecular Devices). […]

[2] = Compound solubility in water

Compound | activation at 0.1 µM ([1]; 0.1 μM test compound) [%] | activation at 1 µM ([1]; 1 μM test compound) [%] | solubility [2] [µg/mL] | Percent Gcase Activation, 1 μM Test Compound ([1]; 1 μM test compound) | Percent Gcase Activation, 0.1 μM Test Compound ([1]; 0.1 μM test compound)
Cc1nc2c(C(=O)NC3CCCc4ccccc43)cccc2o1 (stereo not drawn) [2-Methyl-N-(1,2,3,4-tetrahydronaphthalen-1-yl)benzo[d]oxazole-4-carboxamide] | < 5 | > 20 | 1.5 (≈ 4.9 µM) | – | –
Cc1cn2ccnc(C(=O)NC3CCCc4ccccc43)c2n1 (stereo not drawn) [2-Methyl-N-(1,2,3,4-tetrahydronaphthalen-1-yl)imidazo[1,2-a]pyrazine-8-carboxamide] | < 5 | < 5 | 7.7 (≈ 25.1 µM) | – | –
CCC(NC(=O)c1cccc2oc(C)nc12)c1ccccc1 (stereo not drawn) [2-Methyl-N-(1-phenylpropyl)benzo[d]oxazole-4-carboxamide] | < 5 | 5 to 20 | 13.2 (≈ 44.7 µM) | – | –
CCC(NC(=O)c1nccn2cc(C)nc12)c1ccccc1 (stereo not drawn) [2-Methyl-N-(1-phenylpropyl)imidazo[1,2-a]pyrazine-8-carboxamide] | < 5 | < 5 | 10.9 (≈ 37.1 µM) | – | –
CCCCCO[C@H]1CC[C@H](NC(=O)c2cccc3oc(C)nc23)CC1 [2-Methyl-N-((1R,4R)-4-(pentyloxy)cyclohexyl)benzo[d]oxazole-4-carboxamide] | < 5 | < 5 | 1.6 (≈ 4.65 µM) | – | –
CCCCCO[C@H]1CC[C@H](NC(=O)c2nccn3cc(C)nc23)CC1 [2-Methyl-N—((R 4R)-4-(pentyloxy)cyclohexyl)imidazo[1,2-a]pyrazine-8-carboxamide] | < 5 | < 5 | 8.4 (≈ 24.4 µM) | – | –
Cc1ccc(C(=O)NC2CCCc3ccccc32)c2nccn12 (stereo not drawn) [5-Methyl-N-(1,2,3,4-tetrahydronaphthalen-1-yl)imidazo[1,2-a]pyridine-8-carboxamide] | 5 to 20 | > 20 | 0.2 (≈ 0.655 µM) | – | –
CCC(NC(=O)c1ccc(C)n2ccnc12)c1ccccc1 (stereo not drawn) [5-Methyl-N-(1-phenylpropyl)imidazo[1,2-a]pyridine-8-carboxamide] | 5 to 20 | > 20 | 6.2 (≈ 21.1 µM) | – | –
CCCCCO[C@H]1CC[C@H](NC(=O)c2ccc(C)n3ccnc23)CC1 [5-Methyl-N-((1S,4S)-4-(pentyloxy)cyclohexyl) imidazo[1,2-a]pyridine-8-carboxamide] | 5 to 20 | > 20 | 14.2 (≈ 41.3 µM) | – | –
Cc1ccc(C(=O)N[C@@H](C)C2CC2)c2nccn12 [(S)—N-(1-Cyclopropylethyl)-5-methylimidazo[1,2-a]pyridine-8-carboxamide] | < 5 | 5 to 20 | – | – | –
N-(4-Ethynylphenyl)-5-methylimidazo[1,2-a]pyrazine-8-carboxamide | – | – | – | +++ (Gcase activation greater than 20%) | ++ (Gcase activation in the range of 5% up to 20%)

Further lines, with some results ahead:

activation at 0.1 µM ([1]; 0.1 μM test compound) [%] | activation at 1 µM ([1]; 1 μM test compound) [%] | solubility [2] [µg/mL] | Percent Gcase Activation, 1 μM Test Compound ([1]; 1 μM test compound) | Compound | Percent Gcase Activation, 0.1 μM Test Compound ([1]; 0.1 μM test compound)
5 to 20 | > 20 | 9.9 (≈ 33.3 µM) | – | Cc1ccc(C(=O)NC(C2CC2)C(F)(F)F)c2nccn12 (stereo not drawn) [N-(1-Cyclopropyl-2,2,2-trifluoroethyl)-5-methylimidazo[1,2-a]pyridine-8-carboxamide] | –
< 5 | 5 to 20 | 0.3 (≈ 1.03 µM) | – | Cc1nc2c(C(=O)Nc3ccc4c(c3)CCC4)cccc2o1 [N-(2,3-Dihydro-1H-inden-5-yl)-2-methylbenzo[d]oxazole-4-carboxamide] | –
< 5 | 5 to 20 | 1 (≈ 3.42 µM) | – | Cc1cn2ccnc(C(=O)Nc3ccc4c(c3)CCC4)c2n1 [N-(2,3-Dihydro-1H-inden-5-yl)-2-methylimidazo[1,2-al]pyrazine-8-carboxamide] | –
< 5 | > 20 | 0.4 (≈ 1.37 µM) | – | Cc1ccc(C(=O)Nc2ccc3c(c2)CCC3)c2nccn12 [N-(2,3-Dihydro-1H-inden-5-yl)-5-methylimidazo[1,2-a]pyridine-8-carboxamide] | –
< 5 | > 20 | – | – | Cc1ccc(C(=O)NC(C)(C)C2CC2)c2nccn12 [N-(2-Cyclopropylpropan-2-yl)-5-methylimidazo[1,2-a]pyridine-8-carboxamide] | –
< 5 | 5 to 20 | 0.8 (≈ 2.9 µM) | – | C#Cc1ccc(NC(=O)c2nccn3cc(C)nc23)cc1 [N-(4-Ethynlphenyl)-2-methylimidazo[1,2-a]pyrazine-8-carboxamide] | –
